Measurements: patent US20140135272A1, “NOVEL ZINC FINGER-LIKE PEPTIDE COMPOSITIONS AS POTENT AGENTS IN CANCER PREVENTION AND TREATMENT” (priority 2011, published 2014)

Legend:
Format in all cases: in vivo, nude mice
[1] = test system: prostatic epithelial cells PZ-HPV-7; test: Example 10: peptide pre-injection, then prostatic epithelial cells PZ-HPV-7 inoculation, tumor volumes; details: peptide 2 mM, 100 μl i.v. per week for 3 weeks; PZ-HPV-7 inoculated on the 20th and 90th day; vs H2O control
Method: (§1) In the following examples, 8-week nude mice were used as host subjects to perform in vivo experiments. The nude mice were placed in room temperature and suitable humidity, and supplied with sterile water and standard food for 2 consecutive weeks before performing experiments. Then, the nude mice were injected with zinc finger-like peptide and tumor cells. The detailed processes for the experiments are described as follows.
(§2) First, manually synthesized zinc finger-like peptide (Genemed Synthesis Inc., San Antonio, Tex., USA) was resuspended in degassed purified water to obtain 1-5 mM of zinc finger-like peptide solution (100 μl). Herein, the solution for suspending the zinc finger-like peptide is not particularly limited. Preferably, the zinc finger-like peptide is resuspended in degassed purified water, in order to prevent the self-polymerization of the zinc finger-like peptide and loss its ability to inhibit tumor cell growth.
(§3) In the present experimental group, zinc finger-like peptide with sequence shown in SEQ ID NO: 1 was injected into nude mice.
Nude mice were injected with an intravenous injection of peptide (2 mM, 100 μl) via tail veins per week for 3 consecutive weeks, followed by inoculating prostatic epithelial cells PZ-HPV-7 (2 million cells/100 μl medium) at both the right and left flanks on the 20th day and the 90th day. […]

[2] = test system: breast carcinoma MDA-MB-468; test: Example 7: peptide pre-injection, then breast carcinoma MDA-MB-468 inoculation, tumor volumes; details: peptide 3 mM, 100 μl i.v. per week for 3 weeks before MDA-MB-468 inoculation; vs H2O control
Method: as §1, §2, §3
Nude mice were injected with an intravenous injection of peptide (3 mM, 100 μl) via tail veins per week for 3 consecutive weeks, followed by inoculating breast carcinoma MDA-MB-468 (2 million cells/100 μl medium) at both the right and left flanks. The tumor volumes (mm^3) were observed daily during the whole experiment. […]

[3] = test system: malignant prostate cancer DU145 cells; test: Example 9: peptide pre-injection, malignant prostate cancer DU145 cells inoculated three months later, tumor volumes; details: peptide 2 mM, 100 μl i.v. per week for 3 weeks, vs H2O control
Method: as §1, §2, §3
Nude mice were injected with an intravenous injection of peptide (2 mM, 100 μl) via tail veins per week for 3 consecutive weeks, followed by inoculating malignant prostate cancer DU145 cells (2 million cells/100 μl medium) at both the right and left flanks three months later. […]

[4] = test system: malignant melanoma B16F10; test: Example 3: peptide pre-injection, then malignant melanoma B16F10 inoculation, tumor volumes; details: peptide 2 mM, 100 μl sterile water i.v. per week for 3 weeks before B16F10 inoculation; vs H2O control
Method: as §1, §2
Herein, zinc finger-like peptide with sequence shown in SEQ ID NO: 1 is injected into nude mice.
With this experimental group, nude mice received an intravenous injection of peptide (2 mM, 100 μl sterile water) via tail veins per week for 3 consecutive weeks, followed by inoculation of malignant melanoma B16F10 (2 million cells/100 μl PBS) at both the right and left flanks. The tumor volumes (mm^3) were observed daily during the whole experiment. […]

BCC cells = test: Example 2: peptide pre-injection plus boost injection, BCC cell inoculation, tumor volumes; details: peptide 2 mM, 100 μl i.v. per week for 3 weeks before BCC inoculation; boost per week for 3 weeks 2 months later; vs H2O control
Method: as §1, §2, §3
Nude mice were injected with an intravenous injection of peptide (2 mM, 100 μl PBS) via tail veins per week for 3 consecutive weeks, followed by inoculating BCC cells (2 million cells/100 μl PBS) at both the right and left flanks. 2 months later, boost injection of peptide was carried out per week for 3 consecutive weeks. […]

[5] = test system: malignant glioma U87-MG cells; test: Example 11: peptide pre-injection, malignant glioma U87-MG cells inoculated 1 month later, tumor volumes; details: for growth and proliferation of tumor cells (tumor volumes): 100 μl i.v. per week for 3 weeks, U87-MG inoculated 1 month later, vs H2O control
Method: as §1, §2
The process of the present control group was the same as that of the experimental group, except that the zinc finger-like peptide of the experimental group was substituted with H2O (100 μl) in the present control group. The result is shown in FIG. 11A, which is a curve representing the tumor volumes of mice.
as §3
Nude mice were injected with an intravenous injection of peptide (2 mM, 100 μl) via tail veins per week for 3 consecutive weeks, followed by inoculating malignant glioma U87-MG cells (2 million cells/100 μl medium) at both the right and left flanks 1 month later. The tumor volumes (mm^3) were observed daily during the whole experiment. The result is shown in FIG. 11B, which is a curve representing the tumor volumes of mice.
The process of the present control group was the same as that of the experimental group 1, except that the concentration of the zinc finger-like peptide is 4 mM. The result is shown in FIG. 11C, which is a curve representing the tumor volumes of mice.

[6] = test system: malignant melanoma B 16F10; test: Example 4: peptide variants pre-injected, then malignant melanoma B16F10 inoculation, tumor volumes and death; details: peptide 2 mM, 100 μl i.v. per week for 2 weeks before B16F10 inoculation
Method: as §1, §2
Nude mice received an intravenous injection of peptide (2 mM, 100 μl) via tail veins per week for 2 consecutive weeks, followed by inoculating malignant melanoma B 16F10 (2 million cells/100 μl PBS) at both the right and left flanks. The tumor volumes (mm^3) were observed daily during the whole experiment.
as §3
In the present experimental group, zinc finger-like peptide with sequence shown in SEQ ID NO: 1, in which the fifth amino acid, serine was phosphorylated, and injected into nude mice.
In the present experimental group, zinc finger-like peptide with sequence shown in SEQ ID NO: 6 was injected into nude mice.
In the present experimental group, zinc finger-like peptide with sequence shown in SEQ ID NO: 6, in which the fourth amino acid serine was phosphorylated, and injected nude mice.
In the control group, H2O (100 μl) was injected into nude mice.

For “RRSSSCK [SEQ ID NO: 1, zinc finger-like peptide, manually synthesized]”, the “growth and proliferation of tumor cells (tumor volumes)” value (shortened to “growth and proliferation”) [1] was “the growth and proliferation of tumor cells were not observed”, the “growth and proliferation” value [2] was “the growth and proliferation of tumor cells were not observed” and the “growth and proliferation” value [3] was “the growth and proliferation of tumor cells were not observed”. For the same substance, the “tumor growth (tumor volumes)” value [4] was “can inhibit the growth of skin melanoma on nude mice”, the “tumor growth (tumor volumes)” value (BCC cells) was “can prevent and inhibit the growth of cancer cell” and the “concentration dependence of suppression on tumor cell growth” value ([5]; 2 mM vs 4 mM peptide, U87-MG) was “the suppression on tumor cell growth was getting significant as the concentration of the zinc finger-like peptide increased”. For the same substance, the “growth and proliferation” value ([5]; peptide 2 mM) was “slower than that observed in the control group”, the “growth and proliferation” value ([5]; peptide 4 mM) was “slower than that observed in the control group” and the “skin cancer completely cured after” value [6] was 115 days. For the same substance, the “tumor growth / activity on skin cancer treatment” value ([6]; vs H2O control) was “can effectively inhibit the growth of tumor cells”.
